From patent US11517575B2, “Use of minaprine to reduce tumor growth” (Institut Gustave-Roussy, priority 2019, dated 2022)
Peptide text beside a SMILES is read from it. * marks the point of attachment. Cbz = O=C(OCc1ccccc1)*; CH2F = FC*

System: HCT116 cells
Test: Cell death profiling by quantitative flow imaging of irradiated/non-irradiated co-cultures with death effector inhibitors
Format: cell-based, human
Conditions: 4 Gy, 24 h co-culture; for engulfment of neighboring cells by gamma-irradiated CMFDA+ cells (cell-in-cell structures): Y27632 30 μM; for PS exposure on outer plasma membrane of irradiated CMFDA+ cells: Rosco 10 μM
Method: FIG. 2 Detection of γ-irradiation-elicited cell autonomous death modalities by quantitative imaging flow-cytometry. (A-E) Detection and quantification of plasma membrane integrity loss and PS exposure observed after 24 hour co-culture of untreated (red/dark grey) CMTMR-labeled HCT116 cells and untreated (green/light grey) CMFDA-labeled HCT116 cells (A, C-E), of untreated (red/dark grey) CMTMR-labeled HCT116 cells and untreated (green/light grey) CMFDA-labeled HCT116 cells that have been extemporally mixed (C-E) or after 24 hour co-culture of untreated (red/dark grey) […] HCT116 cells with (green/light grey) CMFDA-labeled HCT116 cells (green) that have been irradiated with 4 grays of γ-ionizing radiation (B-E). The co-cultures have been performed in presence or absence of the indicated pharmacological death effector inhibitors. The detection of plasma membrane integrity (with DRAQ7) and PS exposure (with BV786-streptavidin/Annexin V biotin) have been analyzed for the untreated (red/dark grey) CMTMR^+ HCT116 cells, for untreated (green/light grey) CMFDA^+ HCT116 cells, for treated (green/light grey) CMFDA^+ HCT116 cells and for total cell population (CMTMR^+ or CMFDA^+ HCT116 cells). Representative dot plots (A,B) and quantitative data (C-E) are shown (means±SEM, n=3). (F,G) Representative cell cycle distributions of untreated (red/dark grey) CMTMR^+ HCT116 cells, untreated (green/light grey) CMFDA^+ HCT116 cells, treated (green/light grey) CMFDA^+ HCT116 cells and for total cell population (CMTMR^+ or CMFDA^+ HCT116 cells) obtained after 24 hour co-culture of untreated (red/dark grey) CMTMR-labeled HCT116 cells with untreated (green/light grey) CMFDA-labeled HCT116 cells (F, H-J), of untreated (red/dark grey) CMTMR-labeled HCT116 cells and untreated (green/light grey) CMFDA-labeled HCT116 cells that have been extemporally mixed (H-J) or after 24 hour co-culture of untreated (red/dark grey) CMTM-labeled HCT116 cells with (green/light grey) CMFDA-labeled HCT116 cells (green/light grey) that have been irradiated with 4 grays of γ-ionizing radiation (G-J) are shown. Quantitative data of cell cycle analysis are shown in (H-J) (means±SEM, n=3). * or # or $ represents p<0.05, ## or $$ p<0.01, *** or ###p<0.001.
FIG. 3 Detection of γ-irradiation-elicited non-cell autonomous death modalities by quantitative imaging flow-cytometry and confocal fluorescence microscopy. (A-G) Cell-in-cell structures and target cell degradation were determined by quantitative imaging (A-C) and confocal fluorescent microscopy (D-G) after 24 hour co-culture of untreated (red/dark grey) CMTM-labeled HCT116 cells with (green/light grey) CMFDA-labeled HCT116 cells that have been irradiated with 4 grays of γ-ionizing radiation (A), coculture of untreated (red/dark grey) CMTMR-labeled HCT116 cells with untreated (green/light grey) CMFDA-labeled HCT116 cells (B, C) or on CMTMR labeled (red/dark grey) HCT116 cells and untreated (green/light grey) CMFDA-labeled HCT116 cells that have been extemporally mixed (B, C). As previously described, cells have been sequentially labeled after co-cultures with specific fluorescent probes like BV786-streptavidin-Annexin V biotin, DRAQ7, and Hoechst 33342. Then, (red/dark grey) CMTMR-labeled HCT116 cells internalizing (green/light grey) CMFDA-labeled HCT116 cells (noted R(G)), and (green/light grey) CMFDA-labeled HCT116 cells internalizing (red/dark grey) CMTMR-labeled HCT116 cells (noted G(R)) were detected. Representative images are shown in (A) (scale, 20 μm). Frequencies of Cell-in-Cell structures (B) and target cell degradation (C) are reported (means±SEM, n=3). Representative confocal images of cell-in-cell structures (white arrow) (D) and target cell degradation (white dotted arrow) (E) detected during co-culture of untreated (red) CMTMR-labeled HCT116 cells with untreated or γ-irradiated (green) CMFDA-labeled cells are shown (scale bar=10 μm). […]

| Compound | engulfment of neighboring cells by gamma-irradiated CMFDA+ cells (cell-in-cell structures) (ZVAD 100 μM) | PS exposure on outer plasma membrane of irradiated CMFDA+ cells (ZVAD 100 μM) | cellular degradation of engulfed CMTMR+ cells (ZVAD 100 μM, YVAD 100 μM) | frequency of dying cells (AnnexinV+DRAQ7- and DRAQ7+) (total, non-irradiated CMTMR+ and irradiated CMFDA+ cells, BafA1 50 nM) |
| --- | --- | --- | --- | --- |
| C[C@@H](N)[C@H]1CC[C@H](C(=O)Nc2ccncc2)CC1 [Y27632] | repressed |  |  |  |
| COC(=O)CC(NC(=O)C(C)NC(=O)C(NC(=O)OCc1ccccc1)C(C)C)C(=O)CF (stereo not drawn) [Z-VAD-fmk, Benzyloxycarbonyl-Val-Ala-Asp(OMe)-fluoromethylketone] (Cbz-Val-Ala-Asp(OMe)-CH2F; configuration not given here) | not affected | inhibited the exposure of PS | significantly reduced |  |
| CO/C1=C\C(C)=C\[C@@H](C)[C@@H](O)[C@@H](C)C/C(C)=C/C=C/[C@H](OC)[C@@H]([C@@H](C)[C@@H](O)[C@H](C)[C@@]2(O)C[C@@H](O)[C@H](C)[C@@H](C(C)C)O2)OC1=O [bafilomycin A1, Bafilomycin A1] |  |  |  | increased the frequency of dying cells |
| CC[C@H](CO)Nc1nc(NCc2ccccc2)c2ncn(C(C)C)c2n1 [roscovitine, Roscovitine] |  | inhibited the exposure of PS |  |  |
